From patent US12351616B2, “Peptides and combination of peptides for use in immunotherapy against esophageal cancer and other cancers” (Immatics Biotechnologies GmbH, priority 2015, dated 2025)

Columns and labels:
HLA-A*02:01 = HLA-A*02:01 (Homo sapiens, UniProt P04439, D140Y/D185E/D98H/E176V/E277Q/G131W/G231S/I119V/I121R/I166T/I218V/L300P/L318F/N151K/N90K/P208A/P217A/Q86G/Q94H/R138H/R169H/T345S); experiment: MHC binding assay: UV-ligand exchange with β2m ELISA; conditions: peptide exchange yield, binding to HLA-A*02:01
Source text: Candidate peptides for T cell based therapies according to the present invention were further tested for their MHC binding capacity (affinity). The individual peptide-MHC complexes were produced by UV-ligand exchange, where a UV-sensitive peptide is cleaved upon UV-irradiation, and exchanged with the peptide of interest as analyzed. Only peptide candidates that can effectively bind and stabilize the peptide-receptive MHC molecules prevent dissociation of the MHC complexes. To determine the yield of the exchange reaction, an ELISA was performed based on the detection of the light chain (β2m) of stabilized MHC complexes. The assay was performed as generally described in Rodenko et al. (Rodenko et al., 2006).
96 well MAXISorp plates (NUNC) were coated over night with 2 ug/ml streptavidin in PBS at room temperature, washed 4× and blocked for 1 h at 37° C. in 2% BSA containing blocking buffer. Refolded HLA-A*02:01/MLA-001 monomers served as standards, covering the range of 15-500 ng/ml. Peptide-MHC monomers of the UV-exchange reaction were diluted 100 fold in blocking buffer. Samples were incubated for 1 h at 37° C., washed four times, incubated with 2 ug/ml HRP conjugated anti-β2m for 1 h at 37° C., washed again and detected with TMB solution that is stopped with […]. Absorption was measured at 450 nm. Candidate peptides that show a high exchange yield (preferably higher than 50%, most preferred higher than 75%) are generally preferred for a generation and production of antibodies or fragments thereof, and/or T cell receptors or fragments thereof, as they show sufficient avidity to the MHC molecules and prevent dissociation of the MHC complexes.

CD8+ T cells = experiment: In vitro T-cell priming assay with aAPCs loaded with peptide/MHC and anti-CD28, pMHC multimer readout; type: cell-based, human; conditions: for Wells positive [%]: Table 10B; for Donors: percentage of positive donors; for Donors / wells: Table 10A; for wells: percentage of positive wells
Source text: In order to obtain information regarding the immunogenicity of the TUMAPs of the present invention, the inventors performed investigations using an in vitro T-cell priming assay based on repeated stimulations of CD8+ T cells with artificial antigen presenting cells (aAPCs) loaded with peptide/MHC complexes and anti-CD28 antibody.
In order to perform in vitro stimulations by artificial antigen presenting cells loaded with peptide-MHC complex (pMHC) and anti-CD28 antibody, the inventors first isolated CD8+ T cells from fresh HLA-A*02 leukapheresis products via positive selection using CD8 microbeads (Miltenyi Biotec, Bergisch-Gladbach, Germany) of healthy donors obtained from the University clinics Mannheim, Germany, after informed consent.
PBMCs and isolated CD8+ lymphocytes were incubated in T-cell medium (TCM) until use consisting of RPMI-Glutamax (Invitrogen, Karlsruhe, Germany) supplemented with 10% heat inactivated human AB serum (PAN-Biotech, Aidenbach, Germany), 100 U/ml Penicillin/100 μg/ml Streptomycin (Cambrex, Cologne, Germany), 1 mM sodium pyruvate (CC Pro, Oberdorla, Germany), 20 μg/ml Gentamycin (Cambrex). 2.5 ng/ml IL-7 (PromoCell, Heidelberg, Germany) and 10 U/ml IL-2 (Novartis Pharma, Nurnberg, Germany) were also added to the TCM at this step.
Generation of pMHC/anti-CD28 coated beads, T-cell stimulations and readout was performed in a highly defined in vitro system using four different pMHC molecules per stimulation condition and 8 different pMHC molecules per readout condition.
The purified co-stimulatory mouse IgG2a anti human CD28 Ab 9.3 (Jung et al., 1987) was chemically biotinylated using Sulfo-N-hydroxysuccinimidobiotin as recommended by the manufacturer (Perbio, Bonn, Germany). Beads used were 5.6 μm diameter streptavidin coated polystyrene particles (Bangs Laboratories, Illinois, USA).
800.000 beads/200 μl were coated in 96-well plates in the presence of 4×12.5 ng different biotin-pMHC, washed and 600 ng biotin anti-CD28 were added subsequently in a volume of 200 μl. Stimulations were initiated in 96-well plates by co-incubating 1×10^6 CD8+ T cells with 2×10^5 washed coated beads in 200 μl TCM supplemented with 5 ng/ml IL-12 (PromoCell) for 3 days at 37° C. Half of the medium was then exchanged by fresh TCM supplemented with 80 U/ml IL-2 and incubating was continued for 4 days at 37° C. This stimulation cycle was performed for a total of three times. For the pMHC multimer readout using 8 different pMHC molecules per condition, a two-dimensional combinatorial coding approach was used as previously described (Andersen et al., 2012) with minor modifications encompassing coupling to 5 different fluorochromes. Finally, multimeric analyses were performed by staining the cells with Live/dead near IR dye (Invitrogen, Karlsruhe, Germany), CD8-FITC antibody clone SK1 (BD, Heidelberg, Germany) and fluorescent pMHC multimers. For analysis, a BD LSRII SORP cytometer equipped with appropriate lasers and filters was used. Peptide specific cells were calculated as percentage of total CD8+ cells. Evaluation of multimeric analysis was done using the FlowJo software (Tree Star, Oregon, USA). In vitro priming of specific multimer+CD8+ lymphocytes was detected by comparing to negative control stimulations.

| Substance | Peptide exchange (HLA-A*02:01) | Wells positive [%] (CD8+ T cells) | Donors (CD8+ T cells) | wells (CD8+ T cells) |
| --- | --- | --- | --- | --- |
| 1 (STYGGGLSV; listed as Homo sapiens) [compound 1] | +++ (≥50 = +++) | + (<20% = +) |  |  |
| 2 (SLYNLGGSKRISI; listed as Homo sapiens) [compound 2] | ++++ (≥75% = ++++) | + (<20% = +) |  |  |
| 5 (NLMASQPQL; listed as Homo sapiens) [compound 5] | +++ (≥50 = +++) | +++ (50%-69% = +++) |  |  |
| 6 (LLSGDLIFL; listed as Homo sapiens) [compound 6] | +++ (≥50 = +++) | ++ (20%-49% = ++) |  |  |
| 94 (TLLQEQGTKTV; listed as Homo sapiens) [compound 94] |  |  | ++ (20%-49% = ++) | + (<20% = +) |
| 95 (LIQDRVAEV; listed as Homo sapiens) [compound 95] |  |  | ++ (20%-49% = ++) | + (<20% = +) |
| 97 (ELDRTPPEV; listed as Homo sapiens) [compound 97] |  |  | ++++ (>= 70% = ++++) | ++ (20%-49% = ++) |
| 98 (VLFPNLKTV; listed as Homo sapiens) [compound 98] |  |  | ++++ (>= 70% = ++++) | + (<20% = +) |
| 101 (AMTQLLAGV; listed as Homo sapiens) [compound 101] |  |  | +++ (50%-69% = +++) | ++ (20%-49% = ++) |

Continued, in another order:

| Peptide exchange (HLA-A*02:01) | Substance | Wells positive [%] (CD8+ T cells) | Donors (CD8+ T cells) | wells (CD8+ T cells) |
| --- | --- | --- | --- | --- |
| +++ (≥50 = +++) | 12 (GLASRILDA; listed as Homo sapiens) [compound 12] | + (<20% = +) |  |  |
| +++ (≥50 = +++) | 19 (GLAPFLLNAV; listed as Homo sapiens) [compound 19] | + (<20% = +) |  |  |
| +++ (≥50 = +++) | 29 (SLDGTELQL; listed as Homo sapiens) [compound 29] | + (<20% = +) |  |  |
| ++++ (≥75% = ++++) | 47 (VLASGFLTV; listed as Homo sapiens) [compound 47] | +++ (50%-69% = +++) |  |  |
| +++ (≥50 = +++) | 69 (GLLVGSEKVTM; listed as Homo sapiens) [compound 69] | + (<20% = +) |  |  |
| ++ (≥20% = ++) | 77 (VLVPYEPPQV; listed as Homo sapiens) [compound 77] | + (<20% = +) |  |  |
| ++++ (≥75% = ++++) | 91 (KLIDDVHRL; listed as Homo sapiens) [compound 91] |  |  |  |
| ++ (≥20% = ++) | 92 (SILRHVAEV; listed as Homo sapiens) [compound 92] |  |  |  |
| +++ (≥50 = +++) | 93 (VLINTSVTL; listed as Homo sapiens) [compound 93] |  |  |  |
